According to patent US12679878B2, “CRF2 receptor agonists and their use in therapy” (SANOFI, priority 2020, dated 2026):
Read-outs that look alike come from different tables or passages of the source. Starred links: 1 amine or outer side, 2 acyl side, 3 side chain; linkers in the order of their positions; H or OH if unused. Non-standard residues stand in square brackets, D forms with d. Residues, ends and D or L forms follow the SMILES beside them. Groups on a side chain read outwards from the residue. *: point of attachment. C20 diacid = O=C(O)CCCCCCCCCCCCCCCCCCC(=O)*; C18 diacid = O=C(O)CCCCCCCCCCCCCCCCC(=O)*; γGlu = O=C(O)[C@H](CCC(=O)[*:2])N[*:1]; AEEA = NCCOCCOCC(=O)O; Aib = CC(C)(N)C(=O)O

Biological target: T1, human CRF2α receptor (Homo sapiens, UniProt Q13324)
T1 construct: expressed in transfected cells; host or cells: TeloHEAC
T1 sequence (Q13324 1-411): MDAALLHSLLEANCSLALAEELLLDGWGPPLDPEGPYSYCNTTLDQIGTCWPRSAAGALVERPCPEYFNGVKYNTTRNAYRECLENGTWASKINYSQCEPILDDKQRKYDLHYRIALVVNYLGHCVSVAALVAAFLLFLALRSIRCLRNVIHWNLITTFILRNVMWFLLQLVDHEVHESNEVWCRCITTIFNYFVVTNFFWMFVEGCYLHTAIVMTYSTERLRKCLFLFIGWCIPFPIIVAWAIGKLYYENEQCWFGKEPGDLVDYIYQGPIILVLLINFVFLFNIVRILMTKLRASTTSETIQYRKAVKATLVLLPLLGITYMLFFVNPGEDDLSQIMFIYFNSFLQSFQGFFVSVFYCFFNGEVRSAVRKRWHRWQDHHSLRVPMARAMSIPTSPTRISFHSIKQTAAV
Assay: cAMP agonism at human CRF2 α receptor in TeloHEAC cells (Example 7)
Format: cell-based
Details: cAMP HTRF, TeloHEAC cells stably expressing human CRF2 α
Procedure, shortened: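 HTRF ratio 665/620 nm, read 1 h after lysis reagents, reports cAMP. Cells: thawed stocks, 2000/well, 30 min RT with compound in HBSS, 20 mM HEPES, 0 or 0.1% HSA, 2 mM IBMX. Activity normalised to UCN2 1000 nM = 100%; EC50 from half-maximal activation.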

[1] = 0% HSA, read-out: EC50 [nM], 0% HSA
[2] = 0.1% HSA, read-out: EC50 [nM], 0.1% HSA

| Structure (SMILES) | EC50 [1] [nM] | EC50 [2] [nM] |
| --- | --- | --- |
| CC[C@H](C)[C@H](N)C(=O)N[C@H](C(=O)N[C@@H](CC(C)C)C(=O)N[C@@H](CO)C(=O)N[C@@H](CC(C)C)C(=O)N[C@@H](CC(=O)O)C(=O)N[C@H](C(=O)N1CCC[C@H]1C(=O)N[C@H](C(=O)NCC(=O)N[C@@H](CC(C)C)C(=O)N[C@@H](CCCCNC(=O)COCCOCCNC(=O)COCCOCCNC(=O)CC[C@H](NC(=O)CCCCCCCCCCCCCCCCC(=O)O)C(=O)O)C(=O)N[C@@H](CCC(N)=O)C(=O)N[C@H](C(=O)N[C@@H](CC(C)C)C(=O)N[C@@H](CC(C)C)C(=O)N[C@@H](CCC(=O)O)C(=O)N[C@@H](CCC(N)=O)C(=O)N[C@@H](CCC(=O)O)C(=O)N[C@@H](CCCCN)C(=O)N[C@@H](CCC(N)=O)C(=O)N[C@@H](CCC(=O)O)C(=O)N[C@@H](CCCCN)C(=O)N[C@@H](CCC(=O)O)C(=O)N[C@@H](CCCCN)C(=O)N[C@@H](CCC(N)=O)C(=O)N[C@@H](CCC(N)=O)C(=O)N[C@@H](C)C(=O)N[C@@H](CCC(=O)O)C(=O)N[C@H](C(=O)N[C@@H](CC(N)=O)C(=O)N[C@@H](CCCCN)C(=O)N[C@@H](CCCNC(=N)N)C(=O)N[C@H](C(=O)N[C@@H](CC(C)C)C(=O)N[C@@H](CCC(=O)O)C(=O)N[C@@H](CCCNC(=N)N)C(=O)N[C@H](C(N)=O)C(C)C)[C@@H](C)CC)[C@@H](C)O)[C@@H](C)CC)[C@@H](C)CC)C(C)C)C(C)C [compound 154] (H-IVLSLDVPIGLK([AEEA-AEEA-γGlu-C18 diacid])QILLEQEKQEKEKQQAETNKRILERV-NH2; N-terminus assumed) | 15 | 15.3 |
| CC[C@H](C)[C@H](N)C(=O)N[C@H](C(=O)N[C@@H](CC(C)C)C(=O)N[C@@H](CO)C(=O)N[C@@H](CC(C)C)C(=O)N[C@@H](CC(=O)O)C(=O)N[C@H](C(=O)N1CCC[C@H]1C(=O)N[C@H](C(=O)NCC(=O)N[C@@H](CC(C)C)C(=O)N[C@@H](CCCCNC(=O)COCCOCCNC(=O)COCCOCCNC(=O)CC[C@H](NC(=O)CCCCCCCCCCCCCCCCC(=O)O)C(=O)O)C(=O)N[C@@H](CCC(N)=O)C(=O)N[C@H](C(=O)N[C@@H](CC(C)C)C(=O)N[C@@H](CC(C)C)C(=O)N[C@@H](CCC(=O)O)C(=O)N[C@@H](CCC(N)=O)C(=O)N[C@@H](CCC(=O)O)C(=O)N[C@@H](CCCCN)C(=O)N[C@@H](CCC(N)=O)C(=O)N[C@@H](CCC(=O)O)C(=O)N[C@@H](CCCCN)C(=O)N[C@@H](CCC(=O)O)C(=O)N[C@@H](CCCCN)C(=O)N[C@@H](CCC(N)=O)C(=O)N[C@@H](CCC(N)=O)C(=O)N[C@@H](C)C(=O)N[C@@H](CCC(=O)O)C(=O)N[C@@H](CCCCN)C(=O)N[C@@H](CC(N)=O)C(=O)N[C@@H](CCCCN)C(=O)N[C@@H](CCCNC(=N)N)C(=O)N[C@H](C(=O)N[C@@H](CC(C)C)C(=O)N[C@@H](CCC(=O)O)C(=O)N[C@@H](CCCNC(=N)N)C(=O)N[C@H](C(N)=O)C(C)C)[C@@H](C)CC)[C@@H](C)CC)[C@@H](C)CC)C(C)C)C(C)C [compound 155] (H-IVLSLDVPIGLK([AEEA-AEEA-γGlu-C18 diacid])QILLEQEKQEKEKQQAEKNKRILERV-NH2) | 8.87 |  |
| CC[C@H](C)[C@H](N)C(=O)N[C@H](C(=O)N[C@@H](CC(C)C)C(=O)N[C@@H](CO)C(=O)N[C@@H](CC(C)C)C(=O)N[C@@H](CC(=O)O)C(=O)N[C@@H](C(=O)N1CCC[C@H]1C(=O)N[C@H](C(=O)N[C@@H](CCCCN)C(=O)N[C@@H](CC(C)C)C(=O)N[C@@H](CCCCNC(=O)COCCOCCNC(=O)COCCOCCNC(=O)CC[C@H](NC(=O)CCCCCCCCCCCCCCCCCCC(=O)O)C(=O)O)C(=O)N[C@@H](CCC(N)=O)C(=O)N[C@H](C(=O)N[C@@H](CC(C)C)C(=O)N[C@@H](CC(C)C)C(=O)N[C@@H](CCCCN)C(=O)N[C@@H](CCC(N)=O)C(=O)N[C@@H](C)C(=O)N[C@@H](CCCNC(=N)N)C(=O)N[C@@H](CCC(N)=O)C(=O)N[C@@H](CCCCN)C(=O)NC(C)(C)C(=O)N[C@@H](CCC(N)=O)C(=O)N[C@@H](CCCNC(=N)N)C(=O)N[C@@H](C)C(=O)N[C@@H](CCC(N)=O)C(=O)N[C@@H](C)C(=O)N[C@@H](CCC(=O)O)C(=O)N[C@@H](CCCCN)C(=O)N[C@@H](CC(N)=O)C(=O)N[C@@H](CCCCN)C(=O)N[C@@H](CCCNC(=N)N)C(=O)N[C@H](C(=O)N[C@@H](CC(C)C)C(=O)N[C@@H](CCC(=O)O)C(=O)N[C@@H](CCCNC(=N)N)C(=O)N[C@H](C(N)=O)C(C)C)[C@@H](C)CC)[C@@H](C)CC)[C@@H](C)CC)C(C)C)C(C)C [compound 175] (H-IVLSLD[dV]PIKLK([AEEA-AEEA-γGlu-C20 diacid])QILLKQARQK[Aib]QRAQAEKNKRILERV-NH2; N-terminus assumed) | 0.06 | 3.64 |
| CC[C@H](C)[C@H](N)C(=O)N[C@H](C(=O)N[C@@H](CC(C)C)C(=O)N[C@@H](CO)C(=O)N[C@@H](CC(C)C)C(=O)N[C@@H](CC(=O)O)C(=O)N[C@@H](C(=O)N1CCC[C@H]1C(=O)N[C@H](C(=O)N[C@@H](CCCCN)C(=O)N[C@@H](CC(C)C)C(=O)N[C@@H](CCCCNC(=O)COCCOCCNC(=O)COCCOCCNC(=O)CC[C@H](NC(=O)CC[C@H](NC(=O)CCCCCCCCCCCCCCCCC(=O)O)C(=O)O)C(=O)O)C(=O)N[C@@H](CCC(N)=O)C(=O)N[C@H](C(=O)N[C@@H](CC(C)C)C(=O)N[C@@H](CC(C)C)C(=O)N[C@@H](CCCCN)C(=O)N[C@@H](CCC(N)=O)C(=O)N[C@@H](CCC(=O)O)C(=O)N[C@@H](CCCNC(=N)N)C(=O)N[C@@H](CCC(N)=O)C(=O)N[C@@H](CCCCN)C(=O)N[C@@H](CCCCN)C(=O)N[C@@H](CCC(N)=O)C(=O)N[C@@H](CCCNC(=N)N)C(=O)N[C@@H](CCC(N)=O)C(=O)N[C@@H](CCC(N)=O)C(=O)N[C@@H](C)C(=O)N[C@@H](CCC(=O)O)C(=O)N[C@@H](CCCCN)C(=O)N[C@@H](CC(N)=O)C(=O)N[C@@H](CCCCN)C(=O)N[C@@H](CCC(N)=O)C(=O)N[C@H](C(=O)N[C@@H](CC(C)C)C(=O)N[C@@H](C)C(=O)N[C@@H](CCC(N)=O)C(=O)N[C@H](C(N)=O)C(C)C)[C@@H](C)CC)[C@@H](C)CC)[C@@H](C)CC)C(C)C)C(C)C [compound 176] (H-IVLSLD[dV]PIKLK([AEEA-AEEA-γGlu-γGlu-C18 diacid])QILLKQERQKKQRQQAEKNKQILAQV-NH2; N-terminus assumed) | 0.11 | 3.05 |
| CC[C@H](C)[C@H](N)C(=O)N[C@H](C(=O)N[C@@H](CC(C)C)C(=O)N[C@@H](CO)C(=O)N[C@@H](CC(C)C)C(=O)N[C@@H](CC(=O)O)C(=O)N[C@@H](C(=O)N1CCC[C@H]1C(=O)N[C@H](C(=O)N[C@@H](CCCCN)C(=O)N[C@@H](CC(C)C)C(=O)N[C@@H](CCCCNC(=O)COCCOCCNC(=O)COCCOCCNC(=O)CC[C@H](NC(=O)CC[C@H](NC(=O)CCCCCCCCCCCCCCCCCCC(=O)O)C(=O)O)C(=O)O)C(=O)N[C@@H](CCC(N)=O)C(=O)N[C@H](C(=O)N[C@@H](CC(C)C)C(=O)N[C@@H](CC(C)C)C(=O)N[C@@H](CCCCN)C(=O)N[C@@H](CCC(N)=O)C(=O)N[C@@H](CCC(=O)O)C(=O)N[C@@H](CCCNC(=N)N)C(=O)N[C@@H](CCC(N)=O)C(=O)N[C@@H](CCCCN)C(=O)N[C@@H](CCCCN)C(=O)N[C@@H](CCC(N)=O)C(=O)N[C@@H](CCCNC(=N)N)C(=O)N[C@@H](CCC(N)=O)C(=O)N[C@@H](CCC(N)=O)C(=O)N[C@@H](C)C(=O)N[C@@H](CCC(=O)O)C(=O)N[C@@H](CCCCN)C(=O)N[C@@H](CC(N)=O)C(=O)N[C@@H](CCCCN)C(=O)N[C@@H](CCC(N)=O)C(=O)N[C@H](C(=O)N[C@@H](CC(C)C)C(=O)N[C@@H](C)C(=O)N[C@@H](CCC(N)=O)C(=O)N[C@H](C(N)=O)C(C)C)[C@@H](C)CC)[C@@H](C)CC)[C@@H](C)CC)C(C)C)C(C)C [compound 177] (H-IVLSLD[dV]PIKLK([AEEA-AEEA-γGlu-γGlu-C20 diacid])QILLKQERQKKQRQQAEKNKQILAQV-NH2) | 0.07 | 5.19 |
| CC[C@H](C)[C@H](N)C(=O)N[C@H](C(=O)N[C@@H](CC(C)C)C(=O)N[C@@H](CO)C(=O)N[C@@H](CC(C)C)C(=O)N[C@@H](CC(=O)O)C(=O)N[C@@H](C(=O)N1CCC[C@H]1C(=O)N[C@H](C(=O)N[C@@H](CCCCN)C(=O)N[C@@H](CC(C)C)C(=O)N[C@@H](CCCCNC(=O)COCCOCCNC(=O)COCCOCCNC(=O)CC[C@H](NC(=O)CCCCCCCCCCCCCCCCCCC(=O)O)C(=O)O)C(=O)N[C@@H](CCC(N)=O)C(=O)N[C@H](C(=O)N[C@@H](CC(C)C)C(=O)N[C@@H](CC(C)C)C(=O)N[C@@H](CCCCN)C(=O)N[C@@H](CCC(N)=O)C(=O)N[C@@H](CCC(=O)O)C(=O)N[C@@H](CCCNC(=N)N)C(=O)N[C@@H](CCC(N)=O)C(=O)N[C@@H](CCCCN)C(=O)N[C@@H](CCCCN)C(=O)N[C@@H](CCC(N)=O)C(=O)N[C@@H](CCCNC(=N)N)C(=O)N[C@@H](CCC(N)=O)C(=O)N[C@@H](CCC(N)=O)C(=O)N[C@@H](C)C(=O)N[C@@H](CCC(=O)O)C(=O)N[C@@H](CCCCN)C(=O)N[C@@H](CC(N)=O)C(=O)N[C@@H](CCCCN)C(=O)N[C@@H](CCC(N)=O)C(=O)N[C@H](C(=O)N[C@@H](CC(C)C)C(=O)N[C@@H](C)C(=O)N[C@@H](CCC(N)=O)C(=O)N[C@H](C(N)=O)C(C)C)[C@@H](C)CC)[C@@H](C)CC)[C@@H](C)CC)C(C)C)C(C)C [compound 178] (H-IVLSLD[dV]PIKLK([AEEA-AEEA-γGlu-C20 diacid])QILLKQERQKKQRQQAEKNKQILAQV-NH2; N-terminus assumed) | 0.04 | 3.77 |
